Patent US20260285847A1, “SYMMETRIC AMINOINDOLE-LINKED TRIAZINE FOR A DUAL EFFECT ON ALPHA-SYNUCLEIN AND TAU ISOFORM 2N4R FIBRILLIZATION” (Purdue Research Foundation, priority 2023, published 2026)
Entries after “also recorded” stand apart in the source; their conditions may differ.

Columns and labels:
[1] = target: T1, alpha-synuclein (α-syn) (Homo sapiens, UniProt P37840); assay: Thioflavin T (ThT) fluorescence assay of α-syn fibril formation; format: biochemical; details: compound 100 μM
T1 construct: purchased rPeptide
Description: Thioflavin fluorescence assays. Thioflavin fluorescence assays were used to monitor fibril formation of recombinant α-syn, tau isoform 2N4R, treated with control DMSO and different compounds. Kinetics of α-syn fibrillization were performed using thioflavin T (ThT) as published previously.^32′ ^37 The fluorescence emission experiments were performed with the excitation and emission wavelengths set at 440 and 485 nm, respectively, with a Synergy HT multi-mode microplate reader (BioTek, Winooski, VT). Samples were measured in three replicates and the experiments were repeated three times using at least two different stock solutions. For each time point, arbitrary units of fluorescence were calculated from the mean values normalized against the maximum value in each completed assay. All results contained in FIG. 1 were presented as mean±SEM.
FIG. 1. Chemical structure, physicochemical descriptors, and the effect of compounds on alpha-synuclein (α-syn) aggregation measured as fluorescence intensity using ThT assay. TPSA, Log P, and Log D were obtained with SwissADME. BBB and pKa were obtained from the Blood-Brain Barrier Prediction Server (https://www.cbligand.org/BBB/) and Chemaxon, respectively. CNS MPO scores were assessed as published previously, The ThT (%) represent the maximum fluorescence intensity obtained at the plateau phase of the kinetics of fibrillization using 6.25 μM of α-syn. Compounds were tested at 100 μM (molar ratio 1:16). BBB, blood-brain barrier; C log D, calculated distribution coefficient at 7.4; C log P, calculated partition coefficient; CNS MPO, Central Nervous System Multi Parameter Optimization; HBA, Hydrogen Bond Acceptor; HBD, Hydrogen Bond Donor; LR5, Lipinski's rule of five; pKa, negative log of acid dissociation constant; ThT, Thioflavin T; TPSA, Topological polar surface area.

[2] = target: T2, tau isoform 2N4R (Homo sapiens, UniProt P10636); assay: TEM of tau isoform 2N4R fibrils; format: biochemical; details: protein 60 μM, compound 600 μM (1:10), 24 hours at 37° C.
T2 construct: made in house; host or cells: E. coli BL21(DE3)
T2 sequence (P10636 1-441 isoform P10636-8): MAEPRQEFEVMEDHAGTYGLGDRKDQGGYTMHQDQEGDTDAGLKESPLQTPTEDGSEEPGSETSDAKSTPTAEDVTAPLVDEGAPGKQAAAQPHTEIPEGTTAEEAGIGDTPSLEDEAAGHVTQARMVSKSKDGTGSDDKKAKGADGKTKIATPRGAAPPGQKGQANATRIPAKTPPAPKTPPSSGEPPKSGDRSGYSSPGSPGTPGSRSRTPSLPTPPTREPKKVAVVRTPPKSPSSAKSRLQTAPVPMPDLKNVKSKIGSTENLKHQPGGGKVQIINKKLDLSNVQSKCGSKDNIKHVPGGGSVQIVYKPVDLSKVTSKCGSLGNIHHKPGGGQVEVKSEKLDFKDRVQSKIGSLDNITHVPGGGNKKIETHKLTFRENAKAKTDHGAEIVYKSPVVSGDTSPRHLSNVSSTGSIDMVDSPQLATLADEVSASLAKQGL
Description: (§1) Chemical and peptide source. DMSO and thioflavin-T (ThT) were purchased from Alfa Aesar (Ward Hill, MA). Procuration of recombinant α-syn was from rPeptide (WatKinsville, GA). The recombinant p-tau isoform 1N4R was prepared as published previously.^31, 36 Concerning the preparation of tau 2N4R, bacterial expression plasmid consisting of the vector pRK172 carrying a cDNA encoding the human Tau 2N4R isoform was a kind gift of Dr. David Eliezer (Weill Cornell Medicine). For protein expression, E. coli BL21(DE3) cells were transformed with the plasmid and grown in LB media supplemented with ampicillin (100 μg/mL). Protein over-expression was induced by the addition of 1 mM IPTG for 4 h at 37° C., and cells were pelleted by centrifugation at 6,000 g for 15 min at 4° C. The cells were resuspended in lysis buffer (20 mM MES, 400 mM NaCl, 0.2 mM MgCl2, 1 mM EGTA, protease inhibitor cocktail (P8340, Sigma Aldrich), 0.25 mg/mL lysozyme, and 1 μg/mL DNase I, pH 6.8) and lysed by a French press cell disruptor at 4° C., and the lysate was boiled for 20 min. Denatured proteins were pelleted by centrifugation at 30,000 g for 30 min at 4° C., and the supernatant was dialyzed overnight against cation exchange buffer (20 mM MES, 50 mM NaCl, 1 mM MgCl2, 1 mM EGTA, 2 mM DTT, 0.1 mM PMSF, pH 6.8). The dialysate was loaded onto a HiPrep SP HP column, and proteins were eluted with a linear gradient ranging from 50 mM to 1 M NaCl. Fractions containing tau isoform 2N4R were pooled, and the resulting protein solution was dialyzed against PBS (pH 7.4) and stored at −80° C.
To confirm the general anti-fibrillar effect of compound 10, transmission electron microscopy (TEM) was used as an orthogonal assay. After incubating recombinant proteins (at 60 μM) with 600 μM compound 10 for 24 hours at 37° C., TEM was utilized to detect fibril formation.^32 A volume of 10 μL was applied on a 400-mesh Formvar-carbon-coated copper grid (Electron Microscopy Sciences, Hatfield, PA). The grids were incubated for 1 minute and washed three times with distilled water. […]

[3] = target: T3, α-syn (Homo sapiens, UniProt P37840); assay: Transmission electron microscopy (TEM) of α-syn fibrils; format: biochemical; details: protein 60 μM, compound 600 μM (1:10), 24 hours at 37° C.
T3 construct: purchased rPeptide
Description: To confirm the general anti-fibrillar effect of compound 10, transmission electron microscopy (TEM) was used as an orthogonal assay. After incubating recombinant proteins (at 60 μM) with 600 μM compound 10 for 24 hours at 37° C., TEM was utilized to detect fibril formation.^32 A volume of 10 μL was applied on a 400-mesh Formvar-carbon-coated copper grid (Electron Microscopy Sciences, Hatfield, PA). The grids were incubated for 1 minute and washed three times with distilled water. They were carefully air-dried and incubated for 1 minute in a fresh solution of 1% uranyl acetate. Samples were air-dried and observed using a transmission microscope. Visualization of the grids was performed with transmission electron microscopy (JEOL 1400 Flash, Japan). Acquisition of pictures was performed with the following settings: accelerating voltage of 100 kV and magnification of 40k.

[4] = target: T2, tau isoform 2N4R; assay: PICUP cross-linking assay of tau oligomer formation; format: biochemical; details: compound 50 μM; high molecular weight oligomers around 190 kDa
Description: as §1
PICUP is a technique in which oligomer formation is induced by cross-linking. To induce oligomerization by cross-linking, α-syn (from Rpeptide, LLC) and tau isoform 2N4R were diluted in 10 mM phosphate buffer (pH 7.4) to reach a final concentration of 10 μM. Different compounds were added to the protein solution at a final concentration of 50 μM, resulting in a molar ratio of 1:5. […]

[5] = target: T3, α-syn; assay: PICUP cross-linking assay of α-syn oligomer formation; format: biochemical; details: compound 50 μM; high molecular weight oligomers around 50 kDa
Description: PICUP is a technique in which oligomer formation is induced by cross-linking. To induce oligomerization by cross-linking, α-syn (from Rpeptide, LLC) and tau isoform 2N4R were diluted in 10 mM phosphate buffer (pH 7.4) to reach a final concentration of 10 μM. Different compounds were added to the protein solution at a final concentration of 50 μM, resulting in a molar ratio of 1:5. To confirm the gradual effect of compounds on the inhibition of α-syn oligomerization, compounds were tested at final concentration of 3.125, 6.25, 12.5, 25, and 50 μM. The controls consisted of samples without light exposition, without Ru(bpy) or ammonium persulfate, and without compound (i.e., 0.125% DMSO). The cross-linking reaction was initiated by the addition of 2 μL of Ru(bpy) (300 μM final concentration) and 2 μL ammonium persulfate (6 mM final concentration).^32 Samples were irradiated immediately. Light exposure was of a 1 second duration for α-syn and a 3 second duration for tau isoform 2N4R, with a 53 W (120 V) incandescent lamp installed in a homemade dark-box. Each tube contained a final volume of 20 μL. After irradiation, 8.3 μL of Laemmli loading buffer containing 15% 0-mercaptoethanol was immediately added to the solution, followed by incubation at 95° C. for 10 min. The cross-linked samples were separated on a 16% SDS-PAGE gel and visualized by Coomassie blue staining.

[6] = target: T2, tau isoform 2N4R; assay: ThT fluorescence assay of tau isoform 2N4R fibril formation; format: biochemical; details: compound 100 μM, tau 2N4R 6 μM, heparin 1.5 μM
Description: as §1

[7] = system: M17D-TR/αS3K::YFP neuroblastoma cells; assay: α-syn inclusion formation in dox-inducible neuroblastoma cells; format: cell-based
Description: The dox-inducible neuroblastoma cell line M17D-TR/αS3K::YFP was used to evaluate the effect of compounds in preventing the formation of inclusion following induction with Dox. Dox-inducible neuroblastoma cells M17D-TR/αS-3K::YFP have been used previously. 96-well plates were used with cellular density of 30,000 cells per well. Compounds were added after 24 h and aS-3K::YFP transgene expression was induced […]. Induction was done by adding 1 μg per mL (final concentration) dox to culture media. Cells were incubated in the Incucyte Zoom 2000 platform (Essen Biosciences) and images (green, bright field) were taken continuously. Endpoint analysis of inclusion formation or growth was performed 48 h after induction (96 h after plating). The Incucyte processing definition ‘Inclusions’ was created as follows: Parameters, Fixed Threshold, Threshold (GCU) 50; Edge Split On, Edge Sensitivity 100; Cleanup, Hole Fill (μm^2): 10, Adjust Size (pixels): 0; Filters, Area (μm^2): max 50, Mean Intensity: min 60, Integrated Intensity: min 2000. […] As described previously for the evaluation of protein expression by SDS-PAGE and Western Blotting in the LiCor system, αS-specific monoclonal antibody 4B12 (Thermofisher, Waltham, MA; 1:1000) and a polyclonal antibody to GAPDH (Sigma-Aldrich, St. Louis, MO, G9545; 1:5000) were used.

Clc1nc(Nc2ccc3cc[nH]c3c2)nc(Nc2ccc3cc[nH]c3c2)n1 [Compound 24]
ThT fluorescence intensity (FI), maximum at the plateau phase of α-syn fibrillization ([1]; α-syn 6.25 μM (molar ratio 1:16), compared with DMSO control, mean±SEM, 100 µM): −0.3±0.5%

c1cc(Nc2nc(Nc3cccc4[nH]ccc34)nc(Nc3cccc4[nH]ccc34)n2)c2cc[nH]c2c1 [Compound 25]
tau isoform 2N4R fibril ultrastructure (TEM) [2]: medium size needle-shaped fibrils
α-syn fibril ultrastructure (TEM) [3]: rare short fibrils
activity at 100 µM ([1]; α-syn 6.25 μM (molar ratio 1:16), compared with DMSO control, mean±SEM, read-out: ThT fluorescence intensity (FI), maximum at the plateau phase of α-syn fibrillization): 21.5 ± 7.9%

c1cc(Oc2ncnc(Oc3cccc4[nH]ccc34)n2)c2cc[nH]c2c1 [Compound 7, 4-{[4-(1H-indol-4-yloxy)-1,3,5-triazin-2-yl]oxy}-1H-indole]
tau isoform 2N4R fibril ultrastructure (TEM) [2]: fibrils surrounded by debris admixed with disrupted fibrils
α-syn fibril ultrastructure (TEM) [3]: packets of fine fibrils with a few spherical structures encountered on the grid
tau oligomer formation (PICUP, in words) [4]: did not reduce the formation of α-syn and tau oligomers
α-syn oligomer formation (PICUP, in words) [5]: did not reduce the formation of α-syn and tau oligomers
tau isoform 2N4R fibrillization (in words) [6]: failed to reduce tau fibril formation
inhibition of α-syn aggregation / fibril formation (in words) ([1]; ThT assay): nonexistent anti-fibrillar activity; also recorded: weak effect on fibril formation
α-syn expression levels (Western blot) ([7]; compound 10 μM): reduced
α-syn expression levels (Western blot) ([7]; compound 2.5 and 20 μM): reduced
α-syn inclusion formation (punctate YFP signal, in words) ([7]; compound 7: 2.5 to 20 μM, compound 10: 2.5 to 40 μM, readout 96 h after plating, vs 0.1% DMSO): very minimal changes in the numbers of inclusion
